Data as given in ChEMBL document CHEMBL5233256, “Flavaglines as natural products targeting eIF4A and prohibitins: From traditional Chinese medicine to antiviral activity against coronaviruses” (Eur J Med Chem, 2020).

Tests used:
[1] = system: Middle East respiratory syndrome-related coronavirus; assay: Antiviral activity against MERS-COV infected in human MRC5 cells incubated for 1 hr by crystal violet staining based plaque assay; format: functional, organism-based
Human coronavirus 229E = assay: Antiviral activity against hCoV-229E infected in human MRC5 cells incubated for 1 hr by crystal violet staining based plaque assay; format: functional, organism-based
Poliovirus 1 = assay: Antiviral activity against human poliovirus 1 infected in human MRC5 cells incubated for 1 hr by crystal violet staining based plaque assay; format: functional, organism-based; details: Enterovirus C, MRC5, 1 h
SARS-CoV-2 = assay: Antiviral activity against SARS-CoV-2 USA_WA1/2020 infected in African green monkey Vero E6 cells assessed as reduction in virus replication preincubated with cell for 2 hrs followed by viral infection for 1 hr and measured after 48 hrs by RT-qPCR method; format: functional; details: Severe acute respiratory syndrome coronavirus 2, USA_WA1/2020, Vero C1008; time 51 hrs
Hepatitis C virus = assay: Antiviral activity against HCV infected in human Huh-7.5.1 cells assessed as reduction in viral infection incubated for 48 hrs; format: functional, organism-based, Hepacivirus hominis; details: Huh-7.5.1, 48 h

Compound `COC(=O)[C@H]1[C@@H](O)[C@@]2(O)c3c(OC)cc(O[C@@H]4O[C@@H]([C@H](O)CO)CO[C@H]4OC)cc3O[C@@]2(c2ccc(OC)cc2)[C@@H]1c1ccccc1` [SILVESTROL] has an EC50 ([1]; MRC5, 1 h) of 1.3 nM, an EC90 ([1]; MRC5, time 1 hrs) of 27 nM and an EC50 (Human coronavirus 229E; MRC5, 1 h) of 3 nM. The EC90 (Human coronavirus 229E; MRC5, time 1 hrs) was 12 nM and the EC50 (Poliovirus 1) was 20 nM.

With `COc1cc2c(c(OC)n1)[C@]1(O)[C@H](O)[C@H](CN(C)C)[C@@H](c3ccccc3)[C@]1(c1ccc(C#N)cc1)O2` [ZOTATIFIN] the IC90 (SARS-CoV-2) was 37 nM.

For `COc1ccc([C@@]23Oc4cc(OC)cc(OC)c4[C@]2(O)[C@H](O)[C@H](C(=O)N(C)C)[C@H]3c2ccccc2)cc1` [ROCAGLAMIDE], the EC50 (Hepatitis C virus) was 4 nM.

`COc1ccc([C@@]23Oc4cc(OC)cc(OC)c4[C@]2(O)c2nc4n(c(=O)c2[C@H]3c2ccccc2)CCC4)cc1` was tested, and the EC50 (Hepatitis C virus) was 0.04 nM.
